Measured values published in ChEMBL document CHEMBL5120763 (J Nat Prod, 2022).
Active and inactive are the calls of the source. The calls are words filed in the database; no cut-off is given here.

Key:
[1] = tested on: A549; experiment: Antitumor activity against human A549 cells xenografted in BALB/c nude mouse assessed as reduction in tumor size at 2 mg/kg, ip dosed every 2 days for total of 18 days; assay type: functional, organism-based; conditions: time 18.0 day
[2] = tested on: PC-9; experiment: Induction of apoptosis in human PC-9 cells assessed as late apoptosis cells level at 0.5 uM incubated for 48 hrs by FITC annexin V/PI double-staining based flow cytometry (reference value: 2.07%); assay type: functional
[3] = tested on: NCI-H1299; experiment: Induction of apoptosis in human NCI-H1299 cells assessed as late apoptosis cells level at 1 uM incubated for 24 hrs by FITC annexin V/PI double-staining based flow cytometry (reference value: 4.27%); assay type: functional
[4] = Toxicity in BALB/c nude mouse xenografted with human A549 cells assessed as toxic effect on liver at 1 to 2 mg/kg, ip dosed every 2 days for total of 18 days by H and E staining; assay type: organism-based; conditions: in vivo, 432 h, dose 1-2 mg/kg, time 18 day
[5] = tested on: PC-9; experiment: Induction of apoptosis in human PC-9 cells assessed as reduction in Bcl2 levels at 0.25 to 1 uM incubated for 48 hrs by Western blot analysis; assay type: functional, cell-based; conditions: dose 0.25-1 µM
[6] = tested on: PC-9; experiment: Induction of apoptosis in human PC-9 cells assessed as late apoptosis cells level at 0.25 uM incubated for 48 hrs by FITC annexin V/PI double-staining based flow cytometry (reference value: 2.07%); assay type: functional
[7] = Toxicity in BALB/c nude mouse xenografted with human A549 cells assessed as induction of body weight loss at 1 to 2 mg/kg, ip dosed every 2 days for total of 18 days; assay type: organism-based; conditions: in vivo, 432 h, dose 1-2 mg/kg, time 18 day
[8] = tested on: PC-9; experiment: Induction of apoptosis in human PC-9 cells at 0.25 to 1 uM incubated for 48 hrs by FITC annexin V/PI double-staining based flow cytometry; assay type: functional, cell-based; conditions: dose 0.25-1 µM, DDE = dose-dependent effect
[9] = tested on: PC-9; experiment: Induction of apoptosis in human PC-9 cells assessed as late apoptosis cells level at 1 uM incubated for 48 hrs by FITC annexin V/PI double-staining based flow cytometry (reference value: 2.07%); assay type: functional
[10] = Toxicity in BALB/c nude mouse xenografted with human A549 cells assessed as toxic effect on heart at 1 to 2 mg/kg, ip dosed every 2 days for total of 18 days by H and E staining; assay type: organism-based; conditions: in vivo, dose 1-2 mg/kg
[11] = Toxicity in BALB/c nude mouse xenografted with human A549 cells assessed as toxic effect on kidney at 1 to 2 mg/kg, ip dosed every 2 days for total of 18 days by H and E staining; assay type: organism-based; conditions: in vivo, 432 h, dose 1-2 mg/kg, time 18 day
[12] = tested on: NCI-H1299; experiment: Induction of apoptosis in human NCI-H1299 cells at 0.25 to 1 uM incubated for 24 hrs by FITC annexin V/PI double-staining based flow cytometry; assay type: functional, cell-based; conditions: dose 0.25-1 µM, DDE = dose-dependent effect
[13] = tested on: NCI-H1299; experiment: Induction of apoptosis in human NCI-H1299 cells assessed as late apoptosis cells level at 0.25 uM incubated for 24 hrs by FITC annexin V/PI double-staining based flow cytometry (reference value: 4.27%); assay type: functional
[14] = tested on: PC-9; experiment: Induction of apoptosis in human PC-9 cells assessed as increase in cleaved PARP1 levels at 0.25 to 1 uM incubated for 48 hrs by Western blot analysis; assay type: functional, cell-based; conditions: dose 0.25-1 µM
[15] = tested on: NCI-H1299; experiment: Induction of apoptosis in human NCI-H1299 cells assessed as increase in cleaved PARP1 levels at 0.25 to 1 uM incubated for 24 hrs by Western blot analysis; assay type: functional, cell-based; conditions: dose 0.25-1 µM
[16] = tested on: A549; experiment: Increase in cleaved PARP1 protein expression levels in tumor of BALB/c nude mouse xenografted with human A549 cells at 1 to 2 mg/kg, ip dosed every 2 days for total of 18 days by Western blot analysis; assay type: functional, organism-based; conditions: dose 1-2 mg/kg, time 18.0 day
[17] = Toxicity in BALB/c nude mouse xenografted with human A549 cells assessed as toxic effect on lung at 1 to 2 mg/kg, ip dosed every 2 days for total of 18 days by H and E staining; assay type: organism-based; conditions: in vivo, 432 h, dose 1-2 mg/kg, time 18 day
[18] = tested on: NCI-H1299; experiment: Induction of apoptosis in human NCI-H1299 cells assessed as late apoptosis cells level at 0.5 uM incubated for 24 hrs by FITC annexin V/PI double-staining based flow cytometry (reference value: 4.27%); assay type: functional
[19] = tested on: NCI-H1299; experiment: Induction of apoptosis in human NCI-H1299 cells assessed as reduction in Bcl2 levels at 0.25 to 1 uM incubated for 24 hrs by Western blot analysis; assay type: functional, cell-based; conditions: dose 0.25-1 µM

With `C[C@]12CC[C@H](O)C[C@@]1(O)CC[C@@H]1[C@@H]2CC[C@]2(C)[C@@H](c3ccc(=O)oc3)CC[C@]12O` [TELOCINOBUFAGIN] the Activity [1] was “Active”, the Activity [2] was 11.37% and the Activity [3] was 38.41%. For the same compound, the Activity [4] was “Non-Toxic”, the Activity [5] was “Active” and the Activity [6] was 6.66%. For the same compound, the Activity [7] was “Non-Toxic”, the Activity [8] was “Dde” and the Activity [9] was 22.7%. The Activity [10] was “Non-Toxic”, the Activity [11] was “Non-Toxic” and the Activity [12] was “Dde”. The Activity [13] was 16.98%, the Activity [14] was “Active” and the Activity [15] was “Active”. The Activity [16] was “Active”, the Activity [17] was “Non-Toxic” and the Activity [18] was 25.06%. The Activity [19] was “Active”.
